The nature of one data set: Plasma stability, rat. The note with it: male, Sprague-Dawley.
The next data set is described as follows: Plasma stability, human. As to conditions: both.
The nature of another data set: Plasma stability, mouse. As to conditions: male, CD-1, mouse.
The nature of data set [1]: Liver microsome stability, rat. The note with it: male, Sprague-Dawley, liver microsomes, pH 7.4.
Data set [2] in a line: Liver microsome stability, human. The note with it: both, liver microsomes, pH 7.4. A general note: Microsomes from liver hold many membrane-bound enzymes, among them those of drug oxidation.
A short description of data set [3]: Liver microsome stability, mouse. As to conditions: male, CD-1, mouse, liver microsomes, pH 7.4.
The nature of data set [4]: Mouse plasma PK, single dose PO or IP. The note with it: female, ICR (CD-1).

For `O=c1ccn([C@@H]2O[C@](F)(CO)[C@@H](O)[C@H]2O)c(=O)[nH]1` [EIDD-02749, 1-[(2R,3R,4S,5S)-5-fluoro-3,4-dihydroxy-5-(hydroxymethyl)tetrahydrofuran-2-yl]pyrimidine-2,4-dione], the half-life at 1 μM in “Plasma stability, rat” came out at 22 min; in “Plasma stability, human”, 26 min; in “Plasma stability, mouse” it was 37 min; in data set [1] it was 25 min; in data set [2], 22 min; in data set [3] it was 27 min. Besides, the AUC(0-inf) in data set [4] (ip, 10 mg/kg) came to 19.6 µM·h; in data set [4] (po, 50 mg/kg), 232 µM·h; in data set [4] (po, 150 mg/kg), 392 µM·h; in data set [4] (po, 500 mg/kg) it was 755 µM·h. Moreover, the half-life is 378 min in data set [4] (ip, 10 mg/kg); 498 min in data set [4] (po, 50 mg/kg); 510 min in data set [4] (po, 150 mg/kg); 774 min in data set [4] (po, 500 mg/kg). For the same compound, the bioavailability in data set [4] (po, 50 mg/kg) came to 236%; in data set [4] (po, 150 mg/kg), 133%; in data set [4] (po, 500 mg/kg) it was 77%.

As for `CC(C)C(=O)OC[C@@]1(F)OC(n2ccc(=O)[nH]c2=O)C(O)[C@@H]1O` (stereo partly drawn) [EIDD-2947, [(2S,3S)-5-(2,4-dioxopyrimidin-1-yl)-2-fluoro-3,4-dihydroxy-tetrahydrofuran-2-yl]methyl 2-methylpropanoate], the half-life at 1 μM in “Plasma stability, rat” was determined as 9 min; in “Plasma stability, human”, 2 min; in “Plasma stability, mouse”, 1 min; in data set [1] it was 10 min; in data set [3], 1 min.

Take `CC(C)C(=O)OC[C@@]1(F)O[C@@H](n2ccc(=O)[nH]c2=O)[C@H](OC(=O)C(C)C)[C@@H]1OC(=O)C(C)C` [EIDD-2954, [(2S,3S,4R,5R)-5-(2,4-dioxopyrimidin-1-yl)-2-fluoro-3,4-bis(2-methylpropanoyloxy)tetrahydrofuran-2-yl]methyl 2-methylpropanoate]: the half-life at 1 μM in the data set “Plasma stability, rat” is 1 min; in the data set “Plasma stability, human”, 2 min; in “Plasma stability, mouse”, 1 min; in data set [1] it was less than 1 min; in data set [2], less than 1 min; in data set [3], less than 1 min.

`CC(C)[C@H](N)C(=O)OC[C@@]1(F)O[C@@H](n2ccc(=O)[nH]c2=O)[C@H](O)[C@@H]1O.Cl` [EIDD-2971, [(1S)-1-[[(2S,3S,4R,5R)-5-(2,4-dioxopyrimidin-1-yl)-2-fluoro-3,4-dihydroxy-tetrahydrofuran-2-yl]methoxycarbonyl]-2-methyl-propyl]ammonium chloride]: the half-life at 1 μM in “Plasma stability, rat” is 50 min; in “Plasma stability, human”, 81 min; in the data set “Plasma stability, mouse”, 59 min; in data set [1], 33 min; in data set [2], 38 min; in data set [3], 11 min.

Usually half-life stands for how long it takes for the measured level to halve. The AUC(0-inf) is the area under the concentration-time curve extrapolated to infinity. High values mean more exposure, low ones less exposure.

These data come from patent publication US20240180948A1, “4'-HALOGEN CONTAINING NUCLEOTIDE AND NUCLEOSIDE THERAPEUTIC COMPOSITIONS AND USES RELATED THERETO” (priority 2018, published 2024).
